Results reported in US11298314B2, “Injectable composition for localized fat reduction without pain, edema, and side effects, and method for preparing same” (AMI PHARM CO., LTD., priority 2017, dated 2022).

Legend:
paw of the rats = test: Rat paw edema; assay type: in vivo, Sprague Dawley rats; settings: for degree of edema in words: 2 hours after administration, rat paw; for degree of edema, 1 hour after administration / degree of edema, 2 hours after administration / degree of edema, Immediately after administration: 0.1 ml into rat paw
Protocol: (§1) To evaluate the degree of edema, each test compositions described above were injected into the paw of the rats. Specifically, male Sprague Dawley rats (6 weeks old) were purchased and used after one week of adaptation. The rats (body weight: 170˜200 g) were randomly selected and the thickness of the rat paw were measured with a caliper before the administration of the test compositions. In order to observe the edema, 0.1 ml of PBS and the various test compositions were administered to the paws of the rats. Measurements of the […] were performed by a caliper immediately before the injection, immediately after the injection, and 1 or 2 hours after the injection. In addition, when the thickness was measured, the skin lesion of the injection site was observed by photographing the sole of the paw (using a 4×4 cm scale).
The degree of edema was evaluated as 0 to 4 grades.

sole of the rat paws = test: Measurement of skin lesion (erythema) on rat paw; assay type: in vivo, Sprague Dawley rats; settings: for skin lesion (erythema) in words: 2 hours after administration;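 for grade of skin lesion (erythema), 1 hour after administration: grades − to ++++ mean no to extremely severe erythema versus before injection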;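 for grade of skin lesion (erythema), 2 hours after administration: grades − to ++++ mean no to extremely severe erythema versus before injection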;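 for grade of skin lesion (erythema), Immediately after administration: grades − to ++++ mean no to extremely severe erythema versus before injection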
Protocol: as §1
The grades of skin lesion were evaluated as 0 to 4 grades.

[1] = Formulation stability of PPC injectable preparations: property, transparency, particle size, pH; settings: for bile acid/PPC molar ratio below which a substantially stable formulation did not occur: PPC 5.0%; for bile acid concentration at which stable injectable preparations can be made: based on PPC 5.0%
[2] = system: tissues of the injected area (rat paw); test: H&E staining histological test (inflammation) of injected rat paw; assay type: in vivo, Sprague Dawley rats; settings: for Inflammation (H&E), BA % (w/v) 1.0: bile acid single composition 1.0% (w/v)
Protocol: The tissues of the injected area were dissected, fixed with 10% formalin, and then the specimen was prepared and images were captured using an optical microscope. The degree of inflammation was evaluated as follows.

[3] = bile acid single composition 1.0% (w/v)
[4] = bile acid single composition 2.5% (w/v)
[5] = bile acid single composition 5.0% (w/v)
[6] = bile acid single composition 7.5% (w/v)

Row | grade of skin lesion (erythema), 1 hour after administration (sole of the rat paws; [3]) | grade of skin lesion (erythema), 2 hours after administration (sole of the rat paws; [3]) | grade of skin lesion (erythema), Immediately after administration (sole of the rat paws; [3]) | grade of skin lesion (erythema), 1 hour after administration (sole of the rat paws; [4]) | grade of skin lesion (erythema), 2 hours after administration (sole of the rat paws; [4]) | grade of skin lesion (erythema), Immediately after administration (sole of the rat paws; [4]) | grade of skin lesion (erythema), 1 hour after administration (sole of the rat paws; [5]) | grade of skin lesion (erythema), 2 hours after administration (sole of the rat paws; [5]) | Compound | degree of edema, 1 hour after administration (paw of the rats; [3]) | degree of edema, 2 hours after administration (paw of the rats; [3]) | degree of edema, Immediately after administration (paw of the rats; [3]) | degree of edema, 1 hour after administration (paw of the rats; [4]) | degree of edema, 2 hours after administration (paw of the rats; [4]) | degree of edema, Immediately after administration (paw of the rats; [4]) | degree of edema, 1 hour after administration (paw of the rats; [5]) | degree of edema, 2 hours after administration (paw of the rats; [5]) | degree of edema, Immediately after administration (paw of the rats; [5]) | degree of edema, 1 hour after administration (paw of the rats; [6]) | degree of edema, 2 hours after administration (paw of the rats; [6]) | degree of edema, Immediately after administration (paw of the rats; [6]) | further results
1 | ++ | ++ | + | ++ | +++ | ++ | ++++ | ++++ | C[C@H](CCC(=O)O)[C@H]1CC[C@H]2[C@@H]3[C@@H](O)C[C@@H]4C[C@H](O)CC[C@]4(C)[C@H]3CC[C@]12C [UDCA, (4R)-4-[(3R,5S,7S,8R,9S,10S,13R,14S,17R)-3,7-dihydroxy-10,13-dimethyl-2,3,4,5,6,7,8,9,11,12,14,15,16,17-tetradecahydro-1H-cyclopenta[a]phenanthren-17-yl]pentanoic acid] | ++ (moderate edema [++, (the degree of swelling was 20-40% compared to before the injection)]) | ++ (moderate edema [++, (the degree of swelling was 20-40% compared to before the injection)]) | ++ (moderate edema [++, (the degree of swelling was 20-40% compared to before the injection)]) | +++ (severe edema [+++, (the degree of swelling was 40-60% compared to before the injection)]) | ++++ (extremely severe edema [++++, (the degree of swelling was 60% or more compared to before the injection)]) | ++ (moderate edema [++, (the degree of swelling was 20-40% compared to before the injection)]) | ++++ (extremely severe edema [++++, (the degree of swelling was 60% or more compared to before the injection)]) | ++++ (extremely severe edema [++++, (the degree of swelling was 60% or more compared to before the injection)]) | ++ (moderate edema [++, (the degree of swelling was 20-40% compared to before the injection)]) | ++++ (extremely severe edema [++++, (the degree of swelling was 60% or more compared to before the injection)]) | ++++ (extremely severe edema [++++, (the degree of swelling was 60% or more compared to before the injection)]) | ++ (moderate edema [++, (the degree of swelling was 20-40% compared to before the injection)]) | degree of edema in words (paw of the rats; listed as UDCA 1.0%): moderate; degree of edema in words (paw of the rats; listed as UDCA 2.5%): “severe” and “extremely severe”; skin lesion (erythema) in words (sole of the rat paws; listed as UDCA 1.0%): Moderate; skin lesion (erythema) in words (sole of the rat paws; listed as UDCA 2.5%): “severe” and “extremely severe”; grade of skin lesion (erythema), Immediately after administration (sole of the rat paws; [5]): ++; grade of skin lesion (erythema), 1 hour after administration (sole of the rat paws; [6]): ++++; grade of skin lesion (erythema), 2 hours after administration (sole of the rat paws; [6]): ++++; grade of skin lesion (erythema), Immediately after administration (sole of the rat paws; [6]): ++; bile acid/PPC molar ratio below which a substantially stable formulation did not occur [1]: less than 1.12; bile acid concentration at which stable injectable preparations can be made [1]: ≥ 2.7%; Inflammation (H&E), BA % (w/v) 1.0 ([2]; injected rat paw): +++
2 | ++ | ++ | + | ++++ | ++++ | ++ | ++++ | ++++ | C[C@H](CCC(=O)O)[C@H]1CC[C@H]2[C@@H]3[C@H](O)C[C@@H]4C[C@H](O)CC[C@]4(C)[C@H]3CC[C@]12C [CDCA] | +++ (severe edema [+++, (the degree of swelling was 40-60% compared to before the injection)]) | +++ (severe edema [+++, (the degree of swelling was 40-60% compared to before the injection)]) | ++ (moderate edema [++, (the degree of swelling was 20-40% compared to before the injection)]) | +++ (severe edema [+++, (the degree of swelling was 40-60% compared to before the injection)]) | ++++ (extremely severe edema [++++, (the degree of swelling was 60% or more compared to before the injection)]) | ++ (moderate edema [++, (the degree of swelling was 20-40% compared to before the injection)]) | ++++ (extremely severe edema [++++, (the degree of swelling was 60% or more compared to before the injection)]) | ++++ (extremely severe edema [++++, (the degree of swelling was 60% or more compared to before the injection)]) | ++ (moderate edema [++, (the degree of swelling was 20-40% compared to before the injection)]) | ++++ (extremely severe edema [++++, (the degree of swelling was 60% or more compared to before the injection)]) | ++++ (extremely severe edema [++++, (the degree of swelling was 60% or more compared to before the injection)]) | ++ (moderate edema [++, (the degree of swelling was 20-40% compared to before the injection)]) | degree of edema in words (paw of the rats; listed as CDCA 1.0%): Moderate; degree of edema in words (paw of the rats; listed as CDCA 2.5%): “severe” and “extremely severe”; skin lesion (erythema) in words (sole of the rat paws; listed as CDCA 1.0%): Moderate; skin lesion (erythema) in words (sole of the rat paws; listed as CDCA 2.5%): “severe” and “extremely severe”; grade of skin lesion (erythema), Immediately after administration (sole of the rat paws; [5]): ++; grade of skin lesion (erythema), 1 hour after administration (sole of the rat paws; [6]): ++++; grade of skin lesion (erythema), 2 hours after administration (sole of the rat paws; [6]): ++++; grade of skin lesion (erythema), Immediately after administration (sole of the rat paws; [6]): ++; bile acid/PPC molar ratio below which a substantially stable formulation did not occur [1]: less than 0.89; bile acid concentration at which stable injectable preparations can be made [1]: ≥ 2.2%; Inflammation (H&E), BA % (w/v) 1.0 ([2]; injected rat paw): ++; Inflammation (H&E), BA % (w/v) 2.5 ([2]; bile acid single composition 2.5% (w/v), injected rat paw): +++; Inflammation (H&E), BA % (w/v) 5.0 ([2]; bile acid single composition 5.0% (w/v), injected rat paw): +++; degree of inflammation (H&E) in words ([2]; rats sacrificed at 3 hours, injected paw): Moderate
